Experimental findings from BindingDB's records for patent US20240043440 (Case Western Reserve University, 2024) are described below.

By IC50 is commonly meant the midpoint of a concentration-inhibition curve.

In this experiment the target is T1, 15-hydroxyprostaglandin dehydrogenase [NAD(+)] (Homo sapiens, UniProt P15428).
T1 sequence (P15428 whole entry): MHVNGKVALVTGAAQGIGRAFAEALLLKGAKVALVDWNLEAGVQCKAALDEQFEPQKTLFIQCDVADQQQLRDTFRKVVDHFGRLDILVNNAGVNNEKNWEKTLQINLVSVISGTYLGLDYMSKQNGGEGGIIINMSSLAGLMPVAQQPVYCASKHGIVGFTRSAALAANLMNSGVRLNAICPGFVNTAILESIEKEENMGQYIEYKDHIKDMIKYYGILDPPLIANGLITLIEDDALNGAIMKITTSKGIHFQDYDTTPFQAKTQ
The experiment in a line: In vitro Assay (5 nM).
Experimental: Each compound for inhibiting enzymatic activity of recombinant 15-PGDH (5 nM) in an in vitro assay.
In the case of `CCCC[S@@+]([O-])c1sc2nc(-c3nccs3)cc(-c3nccn3CC)c2c1N` [US20240043440, Example 29], the IC50 was determined as 1.4 nM.

`CCCC[S+]([O-])c1sc2nc(-c3cncnc3)cc(-c3ccccc3)c2c1N` (stereo not given) [US20240043440, Example 20] yielded an IC50 of 3.2 nM.

`CCCC[S+]([O-])c1sc2nc(-c3cccs3)cc(-c3ccccc3)c2c1C` (stereo not given) [US20240043440, Example 10] returned an IC50 of 7.1 nM.

For the compound `CCCC[S+]([O-])c1sc2nc(-c3ccccc3)cnc2c1N` (stereo not given) [US20240043440, Example 27], the IC50 was found to be 1.6 nM.

`CCCC[S+]([O-])c1sc2nc(-c3cnn(C)c3)cc(-c3ccccc3)c2c1N` (stereo not given) [US20240043440, Example 24] yielded an IC50 of 3 nM.

Take `CCCC[S+]([O-])c1sc2nc(-c3ccc(F)nc3)cc(-c3ccccc3)c2c1N` (stereo not given) [US20240043440, Example 22]: the IC50 was determined as 4 nM.

As for `CCCC[S+]([O-])c1cc2c(-c3ccccc3)cc(-c3cccs3)nc2s1` (stereo not given) [US20240043440, Example 11], the midpoint of inhibition, the IC50, lay at 24.7 nM.

Take `CCCC[S+]([O-])c1sc2nc(-c3cnc(N)nc3)cc(-c3ccccc3)c2c1N` (stereo not given) [US20240043440, Example 21]: the IC50 was found to be 4 nM.

Regarding `CCCC[S+]([O-])c1sc2nc(-c3nccs3)nc(-c3cccnc3)c2c1N` (stereo not given) [US20240043440, Example 26], half-maximal inhibition (IC50) was put at 20 nM.

Consider `CCCC[S+]([O-])c1sc2nc(-c3nccs3)nc(-c3cnc(C)n3C)c2c1N` (stereo not given) [US20240043440, Example 15], for which the IC50 was 3.7 nM.
